Test results published in ChEMBL document CHEMBL2057160, “Experimental and 'in silico' analysis of the effect of pH on HIV-1 protease inhibitor affinity: implications for the charge state of the protein ionogenic groups” (Bioorg Med Chem, 2012).

How the values were obtained:
Protease [1] = biological target: T1, Protease (Human immunodeficiency virus 1, UniProt Q9YQ12); test: Binding affinity to Human immunodeficiency virus 1 protease by SPR biosensor interaction analysis at pH 5.1
Protease [2] = biological target: T1, Protease; test: Binding affinity to Human immunodeficiency virus 1 protease by SPR biosensor interaction analysis at pH 4.1
Protease [3] = biological target: T1, Protease; test: Binding affinity to Human immunodeficiency virus 1 protease by SPR biosensor interaction analysis at pH 7.4

T1 sequence (Q9YQ12 whole entry): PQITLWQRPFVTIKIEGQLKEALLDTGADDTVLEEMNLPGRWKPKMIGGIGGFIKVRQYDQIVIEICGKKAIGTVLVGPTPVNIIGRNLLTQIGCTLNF

Row | Structure (SMILES) | Kd (Protease [1]) | Kd (Protease [2]) | Kd (Protease [3])
1 | O=C(N[C@H]1c2ccccc2C[C@H]1O)[C@H](OCc1ccccc1)[C@H](O)[C@@H](O)[C@@H](OCc1ccccc1)C(=O)N[C@H]1c2ccccc2C[C@H]1O | 1 nM | 1.14 nM | 13.9 nM
2 | CNC(=O)[C@@H](NC(=O)[C@H](OCc1ccccc1)[C@H](O)[C@@H](O)[C@@H](OCc1ccccc1)C(=O)N[C@H](C(=O)NC)C(C)C)C(C)C | 3 nM | 2.97 nM | 10.8 nM

The remaining lines, values ahead:

Row | Kd (Protease [1]) | Kd (Protease [2]) | Kd (Protease [3]) | Structure (SMILES)
3 | 759 nM | 208 nM | 8150 nM | CC(=O)N[C@H](C(=O)N[C@H](C(=O)N[C@@H](CC(C)C)[C@@H](O)CC(=O)N[C@@H](C)C(=O)N[C@@H](CC(C)C)[C@@H](O)CC(=O)O)C(C)C)C(C)C [ACETYLPEPSTATIN]
4 | 1.84 nM | 1.83 nM | 6.95 nM | O=C1N(Cc2ccc(CO)cc2)[C@H](COc2ccccc2)[C@H](O)[C@@H](O)[C@@H](COc2ccccc2)N1Cc1ccc(CO)cc1
5 | 2.99 nM | 37.6 nM | 3.4 nM | Cc1c(O)cccc1C(=O)N[C@@H](CSc1ccccc1)[C@H](O)CN1C[C@H]2CCCC[C@H]2C[C@H]1C(=O)NC(C)(C)C
